# From patent US9556229B2, “Modification of peptides using a bis(thioether)arylbridge approach” (priority 2012, dated 2017)
# Like-named read-outs stand apart in the source and are kept apart here. Starred links: 1 amine or outer side, 2 acyl side, 3 side chain; linkers in the order of their positions; H or OH if unused. Positions of bridges follow the written chain, without caps; N, C: chain ends. Non-standard residues stand in square brackets, D forms with d. Residues, ends and D or L forms follow the SMILES beside them. ξ: configuration not given here. *: point of attachment. DAMPA = CN(Cc1cnc2nc(N)nc(N)c2n1)c1ccc(C(=O)*)cc1; Phe(F5) = N[C@@H](Cc1c(F)c(F)c(F)c(F)c1F)C(=O)O; Chlorambucil = O=C(CCCc1ccc(N(CCCl)CCCl)cc1)*; X1 = O=C(Cc1ccc(CSCCCCN[*:1])cc1)[*:2]; γGlu = O=C(O)[C@H](CCC(=O)[*:2])N[*:1]; 1Nal = N[C@@H](Cc1cccc2ccccc12)C(=O)O; mXylylene = c1cc(C[*:1])cc(C[*:2])c1; oXylylene = c1ccc(C[*:2])c(C[*:1])c1; Cha = N[C@@H](CC1CCCCC1)C(=O)O; Nicotinoyl = O=C(c1cccnc1)*; ξDisc = O=C(O)C1NCc2ccccc21; β3hP = O=C(O)C[C@@H]1CCCN1; Inp = O=C(O)C1CCNCC1; Ahx = NCCCCCC(=O)O
# Key:
# [1] = test system: HCT116 colorectal cancer cells
# HCT116/SCID = experiment: Mouse subcutaneous engraftment model (HCT116/SCID); assay type: in vivo
# Text: Based on analysis of p53/MDM2 and PMI-N8A/MDM2 crystal structures we placed various combinations of (L)- and (D)Cys residues in specific positions of PMI sequence considering the importance of particular amino acids for peptide bioactivity (see, e.g., Tables 1 and 2. Particular combinations were in turn tAB-ed using selected bis-halogeno-aryl compounds (see, e.g., FIG. 1) that fit into spatial arrangements/dimensions available, based on computer aided molecular modeling. Since ^DPMI-a presumably lack cell permeating properties, in addition we engineered several analogues as a cell permeating compounds containing multiple Arg residues simultaneously employing combination of D- and unusual amino acids to further enhance stability and binding properties of the peptide. Analogues were subsequently tested in vitro using HCT116 colorectal cancer cells and PrestoBlue™ assay (Invitrogen). […] Selected analogues were also tested in vivo using mouse subcutaneous engraftment model (HCT116/SCID).
EC50 [1],Compound,tumor growth delay (HCT116/SCID),"EC50 ([1]; read-out: EC50 [μM] HCT-116, HCT116 colorectal cancer cells, PrestoBlue assay, NA = not active)"
11.2 ± 1.2 µM,"N=C(N)NCCC[C@@H](N)C(=O)N[C@@H](CCCNC(=N)N)C(=O)N[C@@H](Cc1c(F)c(F)c(F)c(F)c1F)C(=O)N[C@@H](CCCNC(=N)N)C(=O)N[C@@H]1CSCc2ccccc2CSC[C@@H](C(=O)N[C@H](CCCNC(=N)N)C(=O)N[C@@H](CC2CCCCC2)C(=O)N[C@@H](CCCNC(=N)N)C(=O)N2Cc3ccccc3C2C(N)=O)NC(=O)[C@H](Cc2cccc3ccccc23)NC(=O)[C@H](Cc2ccc(O)cc2)NC1=O (stereo partly drawn) [ArB14Co, Arg-Arg-PhF-Arg-Cys-Tyr-Na1-Cys-Arg-Cha-Arg-DISC] (H-[dR]R[Phe(F5)]R[dC]Y[1Nal]C[dR][Cha]R[ξDisc]-NH2; linker 5-8 via oXylylene)",~14.6 days,
249 µM,CC(C)C[C@H](NC(=O)[C@@H](C)NC(=O)[C@@H]1CSCc2ccccc2CSC[C@@H](NC(=O)[C@H](C)NC(=O)[C@H](Cc2ccccc2)NC(=O)[C@H](CO)NC(=O)[C@@H](N)[C@@H](C)O)C(=O)N[C@@H](Cc2ccc(O)cc2)C(=O)N[C@@H](Cc2c[nH]c3ccccc23)C(=O)N1)C(=O)N[C@@H](CO)C(=O)N1CCC[C@H]1C(N)=O [ArB14o],,
> 250 µM,CC(C)C[C@H](NC(=O)[C@H]1CSCc2ccc(cc2)CSC[C@@H](NC(=O)[C@H](C)NC(=O)[C@H](Cc2ccccc2)NC(=O)[C@H](CO)NC(=O)[C@@H](N)[C@@H](C)O)C(=O)N[C@@H](Cc2ccc(O)cc2)C(=O)N[C@@H](Cc2c[nH]c3ccccc23)C(=O)NCC(=O)N1)C(=O)N[C@@H](CO)C(=O)N1CCC[C@H]1C(N)=O [ArB15Cp],,
64.5 µM,CC(C)C[C@H](NC(=O)[C@H](CCCNC(=N)N)NC(=O)[C@H](CS)NC(=O)[C@H](Cc1c[nH]c2ccccc12)NC(=O)[C@H](Cc1ccc(O)cc1)NC(=O)[C@H](CCCNC(=N)N)NC(=O)[C@H](CS)NC(=O)[C@H](Cc1ccccc1)NC(=O)[C@H](CCCNC(=N)N)NC(=O)c1cccnc1)C(=O)N[C@@H](CCCNC(=N)N)C(=O)N1CCC[C@H]1C(N)=O [ArB15F/GNicr] (Nicotinoyl-RFCRYWCRLRP-NH2),,
> 250 µM,CC(C)C[C@H](NC(=O)[C@H](CCCNC(=N)N)NC(=O)[C@H](CS)NC(=O)[C@H](Cc1c[nH]c2ccccc12)NC(=O)[C@H](Cc1ccc(O)cc1)NC(=O)[C@H](CCCNC(=N)N)NC(=O)[C@H](CS)NC(=O)[C@H](Cc1ccccc1)NC(=O)[C@@H](N)CCCNC(=N)N)C(=O)N[C@@H](CCCNC(=N)N)C(=O)N1CCC[C@H]1C(N)=O [ArB15F/Gr] (H-RFCRYWCRLRP-NH2; N-terminus assumed),,
49.6 µM,CC(C)C[C@H](NC(=O)[C@H](CCCNC(=N)N)NC(=O)[C@@H]1CSCc2ccccc2CSC[C@H](NC(=O)[C@H](Cc2ccccc2)NC(=O)[C@@H](N)CCCNC(=N)N)C(=O)N[C@@H](CCCNC(=N)N)C(=O)N[C@@H](Cc2ccc(O)cc2)C(=O)N[C@@H](Cc2c[nH]c3ccccc23)C(=O)N1)C(=O)N[C@@H](CCCNC(=N)N)C(=O)N1CCC[C@H]1C(N)=O [ArB15Fo] (H-RFCRYWCRLRP-NH2; linker 3-7 via oXylylene; N-terminus assumed),,
126 µM,CC(C)C[C@H](NC(=O)[C@H](CCCNC(=N)N)NC(=O)[C@@H]1CSCc2cccc(c2)CSC[C@H](NC(=O)[C@H](Cc2ccccc2)NC(=O)[C@H](CCCNC(=N)N)NC(=O)c2cccnc2)C(=O)N[C@@H](CCCNC(=N)N)C(=O)N[C@@H](Cc2ccc(O)cc2)C(=O)N[C@@H](Cc2c[nH]c3ccccc23)C(=O)N1)C(=O)N[C@@H](CCCNC(=N)N)C(=O)N1CCC[C@H]1C(N)=O [ArB15GNicm] (Nicotinoyl-RFCRYWCRLRP-NH2; linker 3-7 via mXylylene),,

# The next lines start with the molecule.
Compound,EC50 [1],tumor growth delay (HCT116/SCID),"EC50 ([1]; read-out: EC50 [μM] HCT-116, HCT116 colorectal cancer cells, PrestoBlue assay, NA = not active)"
"N=C(N)NCCC[C@H](NC(=O)[C@H](Cc1c(F)c(F)c(F)c(F)c1F)NC(=O)[C@H](CCCNC(=N)N)NC(=O)[C@@H](CCCNC(=N)N)NC(=O)CCCCCNC(=O)CCCc1ccc(N(CCCl)CCCl)cc1)C(=O)N[C@@H]1CSCc2ccccc2CSC[C@@H](C(=O)N[C@H](CCCNC(=N)N)C(=O)N[C@@H](CC2CCCCC2)C(=O)N[C@@H](CCCNC(=N)N)C(=O)N2Cc3ccccc3C2C(N)=O)NC(=O)[C@H](Cc2cccc3ccccc23)NC(=O)[C@H](Cc2ccc(O)cc2)NC1=O (stereo partly drawn) [ArB14Co-CLB, CLB-Ahx-Arg-Arg-PhF-Arg-Cys-Tyr-Na1-Cys-Arg-Cha-Arg-DISC] ({Chlorambucil-Ahx}-[dR]R[Phe(F5)]R[dC]Y[1Nal]C[dR][Cha]R[ξDisc]-NH2; linker 5-8 via oXylylene)",7.5 ± 1.1 µM,,
"CN(Cc1cnc2nc(N)nc(N)c2n1)c1ccc(C(=O)N[C@@H](CCC(=O)NCCCCCC(=O)N[C@H](CCCNC(=N)N)C(=O)N[C@@H](CCCNC(=N)N)C(=O)N[C@@H](Cc2c(F)c(F)c(F)c(F)c2F)C(=O)N[C@@H](CCCNC(=N)N)C(=O)N[C@@H]2CSCc3ccccc3CSC[C@@H](C(=O)N[C@H](CCCNC(=N)N)C(=O)N[C@@H](CC3CCCCC3)C(=O)N[C@@H](CCCNC(=N)N)C(=O)N3Cc4ccccc4C3C(N)=O)NC(=O)[C@H](Cc3cccc4ccccc34)NC(=O)[C@H](Cc3ccc(O)cc3)NC2=O)C(=O)O)cc1 (stereo partly drawn) [ArB14Co-MTX, MTX-Ahx-Arg-Arg-PhF-Arg-Cys-Tyr-Na1-Cys-Arg-Cha-Arg-DISC] ({DAMPA-γGlu-Ahx}-[dR]R[Phe(F5)]R[dC]Y[1Nal]C[dR][Cha]R[ξDisc]-NH2; linker 5-8 via oXylylene)",6.9 ± 0.4 µM,,
C[C@@H](O)[C@H](N)C(=O)N[C@@H](CO)C(=O)N[C@@H](Cc1ccccc1)C(=O)N[C@@H](CCCNC(=N)N)C(=O)N[C@@H](CCCNC(=N)N)C(=O)N[C@@H](Cc1ccc(O)cc1)C(=O)N[C@H]1CSCc2cccc(c2)CSC[C@@H](C(=O)N[C@@H](CO)C(=O)N2CCC[C@H]2C(N)=O)NC(=O)[C@H](CCCNC(=N)N)NC(=O)[C@H](CCCNC(=N)N)NC1=O [ArB14Dm],118 µM,,
C[C@@H](O)[C@H](N)C(=O)N[C@@H](CO)C(=O)N[C@@H](Cc1ccccc1)C(=O)N[C@@H](CCCNC(=N)N)C(=O)N[C@@H](CCCNC(=N)N)C(=O)N[C@@H](Cc1ccc(O)cc1)C(=O)N[C@H]1CS(=O)(=O)Cc2cccc(c2)CS(=O)(=O)C[C@@H](C(=O)N[C@@H](CO)C(=O)N2CCC[C@H]2C(N)=O)NC(=O)[C@H](CCCNC(=N)N)NC(=O)[C@H](CCCNC(=N)N)NC1=O [ArB14Dmx],142 µM,,
CC(C)C[C@H](NC(=O)[C@H]1CSCc2cccc(c2)Cc2cccc(c2)CSC[C@H](NC(=O)[C@H](C)NC(=O)[C@H](Cc2ccccc2)NC(=O)[C@H](CO)NC(=O)[C@@H](N)[C@@H](C)O)C(=O)N[C@@H](Cc2ccc(O)cc2)C(=O)N[C@@H](Cc2c[nH]c3ccccc23)C(=O)NCC(=O)N1)C(=O)N[C@@H](CO)C(=O)N1CCC[C@H]1C(N)=O [ArB15Eb],,,163 µM
CC(C)C[C@H](NC(=O)[C@H](CCCNC(=N)N)NC(=O)[C@@H]1CSCc2ccccc2CSC[C@H](NC(=O)[C@H](Cc2ccccc2)NC(=O)[C@H](CCCNC(=N)N)NC(=O)c2cccnc2)C(=O)N[C@@H](CCCNC(=N)N)C(=O)N[C@@H](Cc2ccc(O)cc2)C(=O)N[C@@H](Cc2c[nH]c3ccccc23)C(=O)N1)C(=O)N[C@@H](CCCNC(=N)N)C(=O)N1CCC[C@H]1C(N)=O [ArB15FNico] (Nicotinoyl-RFCRYWCRLRP-NH2; linker 3-7 via oXylylene),189 µM,,
CC(C)C[C@H](NC(=O)[C@H](CCCNC(=N)N)NC(=O)[C@@H]1CSCc2cccc(c2)CSC[C@H](NC(=O)[C@H](Cc2ccccc2)NC(=O)[C@@H](N)CCCNC(=N)N)C(=O)N[C@@H](CCCNC(=N)N)C(=O)N[C@@H](Cc2ccc(O)cc2)C(=O)N[C@@H](Cc2c[nH]c3ccccc23)C(=O)N1)C(=O)N[C@@H](CCCNC(=N)N)C(=O)N1CCC[C@H]1C(N)=O [ArB15Gm] (H-RFCRYWCRLRP-NH2; linker 3-7 via mXylylene; N-terminus assumed),52.2 µM,,
"C[C@@H]1NC(=O)[C@H](CCCNC(=N)N)NC(=O)C[C@@H]2CCCN2C(=O)Cc2ccc(cc2)CSCCCCNC(=O)C2CCN(CC2)C(=O)[C@@H](CCCCN)NC(=O)[C@H](CCCNC(=N)N)NC(=O)[C@@H](Cc2c[nH]c3ccccc23)NC(=O)[C@H](C)NC(=O)[C@H](CCCNC(=N)N)NC(=O)C[C@@H]2CCCN2C(=O)Cc2ccc(cc2)CSCCCCNC(=O)C2CCN(CC2)C(=O)[C@@H](CCCCN)NC(=O)[C@H](CCCNC(=N)N)NC(=O)[C@@H](Cc2c[nH]c3ccccc23)NC1=O [ArBMim, [-Bmpa-bhPro-Arg-Ala-Trp-Arg-Lys-Inp-CH2CH2CH2CH2-S-]2] (cyclo([Inp][X1][β3hP]RA[dW]R[dK][Inp][X1][β3hP]RA[dW]R[dK]))",23.4 ± 2.1 µM,,
